Among the data in patent publication US8664220B2, “Polycyclic compounds as lysophosphatidic acid receptor antagonists” (Amira Pharmaceuticals, Inc., priority 2009, dated 2014) are IC50 values, retold here.

T1 sequence (Q92633 whole entry): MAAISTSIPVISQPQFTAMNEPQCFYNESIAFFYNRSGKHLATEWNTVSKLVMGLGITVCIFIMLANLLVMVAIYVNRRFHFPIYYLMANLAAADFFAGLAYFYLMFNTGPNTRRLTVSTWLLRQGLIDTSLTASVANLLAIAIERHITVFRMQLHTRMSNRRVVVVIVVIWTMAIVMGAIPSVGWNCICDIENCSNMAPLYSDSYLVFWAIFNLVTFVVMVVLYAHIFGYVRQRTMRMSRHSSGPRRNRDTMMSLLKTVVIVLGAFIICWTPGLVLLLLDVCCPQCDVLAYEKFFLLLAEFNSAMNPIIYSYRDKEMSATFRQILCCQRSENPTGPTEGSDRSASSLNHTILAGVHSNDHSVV

This experiment addresses T1, human LPA1 (Homo sapiens, UniProt Q92633).
T1 construct: the full-length cDNA for human LPA1 was obtained by PCR of the reverse transcription reaction; expressed in transfected cells
The experiment can be described thus: LPA1 calcium flux assay. Particulars: human LPA1 expressing CHO cells, stimulated with 10 nM LPA; read-out: HLPA1 Ca Flux IC50. It counts as cell-based. The method, then:
Establishment of a CHO Cell Line Stably Expressing Human LPA1
A 1.1 kb cDNA encoding the human LPA1 receptor was cloned from human lung.
Human lung RNA (Clontech Laboratories, Inc. USA) was reverse transcribed using the RETROscript kit (Ambion, Inc.) and the full-length cDNA for human LPA1 was obtained by PCR of the reverse transcription reaction. The nucleotide sequence of the cloned human LPA1 was determined by sequencing and confirmed to be identical to the published human LPA1 sequence (An et al. Biochem. Biophys. Res. Commun. 231:619 (1997). The cDNA was cloned into the pcDNA5/FRT expression plasmid and transfected in CHO cells using lipofectamine 2000 (Invitrogen Corp., USA). Clones stably expressing human LPA1 were selected using hygromycin and identified as cells that show Ca-influx in response to LPA.
LPA1 and LPA3 Calcium Flux Assays
Human LPA1 or LPA3 expressing CHO cells are seeded at 20,000-45,000 cells per well in a 96-well poly-D-lysine coated plate one or two days before the assay. Prior to the assay, the cells are washed once with PBS and then cultured in serum-free media overnight. On the day of the assay, a calcium indicator dye (Calcium 4, Molecular Devices) in assay buffer (HBSS with Ca^2+ and Mg^2+ and containing 20 mM Hepes and 0.3% fatty-acid free human serum albumin) is added to each well and incubation continued for 1 hour at 37° C. 10 μl of test compounds in 2.5% DMSO are added to the cells and incubation continued at room temperature for 30 minutes. Cells are the stimulated by the addition of 10 nM LPA and intracellular Ca^2+ measured using the Flexstation 3 (Molecular Devices). IC50s are determined using Graphpad prism analysis of drug titration curves.
Background: Calcium assays in cells follow changes in intracellular calcium, usually with a dye or a luminescent sensor.
A word on the IC50: it is the concentration that gives 50% inhibition. As for `Cc1noc(-c2ccc(-c3ccc(C4(C(=O)O)CC4)cc3)cc2)c1NC(C)[C@@H]1C[C@H]1c1ccccc1` (relative stereo) [Compound 1-66, 1-(4′-{3-Methyl-4-[trans-1-(2-phenyl-cyclopropyl)-ethylamino]-isoxazol-5-yl}-biphenyl-4-yl)-cyclopropanecarboxylic acid], the IC50 was < 300 nM. With `Cc1noc(-c2ccc(-c3ccc(C4(C(=O)O)CC4)cc3)cc2)c1C1CC1C(=O)N(C)[C@H](C)c1ccccc1` (single isomer, unassigned) [Compound 1-26] the figure was 300 to 1000 nM.

For the compound `Cc1noc(-c2ccc(-c3ccc(C4(C(=O)O)CC4)cc3)cc2)c1C1CC1C(=O)N(C)[C@H](C)c1ccccc1` (single isomer, unassigned) [Compound 1-27], the IC50 lay in the range of 300 to 1000 nM.

Take `Cc1noc(-c2ccc(-c3ccc(C4(C(=O)O)CC4)cc3)cc2)c1C(O)c1nnc(Cc2ccccc2)o1` (single isomer, unassigned) [Compound 1-34, 1-(4′-{4-[(5-Benzyl-[1,3,4]oxadiazol-2-yl)-hydroxy-methyl]-3-methyl-isoxazol-5-yl}-biphenyl-4-yl)-cyclopropanecarboxylic acid]: the IC50 is < 300 nM. With `Cc1noc(-c2ccc(-c3ccc(C4(C(=O)O)CC4)cc3)cc2)c1C(O)c1nnc(Cc2ccccc2)o1` (single isomer, unassigned) [Compound 1-35, 1-(4′-{4-[(5-Benzyl-[1,3,4]oxadiazol-2-yl)-hydroxy-methyl]-3-methyl-isoxazol-5-yl}-biphenyl-4-yl)-cyclopropanecarboxylic acid] the figure was < 300 nM. On to `Cc1noc(-c2ccc(-c3ccc(C4(C(=O)O)CC4)cc3)cc2)c1C(O)c1cn(Cc2ccccc2)nn1` (single isomer, unassigned) [Compound 1-40, 1-(4′-{4-[(1-Benzyl-1H-[1,2,3]triazol-4-yl)-hydroxy-methyl]-3-methyl-isoxazol-5-yl}-biphenyl-4-yl)-cyclopropanecarboxylic acid], for which the IC50 is < 300 nM. On to `Cc1noc(-c2ccc(-c3ccc(C4(CC(=O)O)CC4)cc3)cc2)c1NC(C)c1cc(-c2ccccc2)no1` (single isomer, unassigned) [Compound 1-43, [1-(4′-{3-Methyl-4-[1-(3-phenyl-isoxazol-5-yl)-ethylamino]-isoxazol-5-yl}-biphenyl-4-yl)-cyclopropyl]-acetic acid], for which the IC50 is < 300 nM. Turning to `Cc1noc(-c2ccc(-c3ccc(C4(CC(=O)O)CC4)cc3)cc2)c1NC(C)c1cc(-c2ccccc2)no1` (single isomer, unassigned) [Compound 1-44, [1-(4′-{3-Methyl-4-[1-(3-phenyl-isoxazol-5-yl)-ethylamino]-isoxazol-5-yl}-biphenyl-4-yl)-cyclopropyl]-acetic acid], the IC50 is < 300 nM. Consider `Cc1noc(-c2ccc(-c3ccc(C4(C(=O)NS(C)(=O)=O)CC4)cc3)cc2)c1C(O)c1cn(Cc2ccccc2)nn1` (single isomer, unassigned) [Compound 3-1, N-[1-(4′-{4-[(1-Benzyl-1H-[1,2,3]triazol-4-yl)-hydroxy-methyl]-3-methyl-isoxazol-5-yl}-biphenyl-4-yl)-cyclopropanecarbonyl]-methanesulfonamide], for which the IC50 was < 300 nM. Regarding `Cc1noc(-c2ccc(-c3ccc(C4(C(=O)NS(C)(=O)=O)CC4)cc3)cc2)c1C(O)c1nnc(Cc2ccccc2)o1` (single isomer, unassigned) [Compound 3-2, N-[1-(4′-{4-[(5-Benzyl-[1,3,4]oxadiazol-2-yl)-hydroxy-methyl]-3-methyl-isoxazol-5-yl}-biphenyl-4-yl)-cyclopropanecarbonyl]-methanesulfonamide], the IC50 is < 300 nM. In the case of `Cc1noc(-c2ccc(-c3ccc(C4(C(=O)O)CC4)cc3)cc2)c1NC1CCCCC1Cc1ccccc1` (stereo not shown) [Compound 1-1, 1-{4′-[4-(2-Benzyl-cyclohexylamino)-3-methyl-isoxazol-5-yl]-biphenyl-4-yl}-cyclopropanecarboxylic acid] it was < 300 nM. For `Cc1ccccc1N1CCN(C(=O)c2c(C)noc2-c2ccc(-c3ccc(C4(C(=O)O)CC4)cc3)cc2)CC1` [Compound 1-2, 1-{4′-[3-Methyl-4-(4-o-tolyl-piperazine-1-carbonyl)-isoxazol-5-yl]-biphenyl-4-yl}-cyclopropanecarboxylic acid], the IC50 lay in the range of 1000 to 50000 nM. In the case of `Cc1noc(-c2ccc(-c3ccc(C4(C(=O)O)CC4)cc3)cc2)c1C(=O)N1CCN(S(=O)(=O)c2ccc(Cl)c(Cl)c2)CC1` [Compound 1-3, 1-(4′-{4-[4-(3,4-Dichloro-benzenesulfonyl)-piperazine-1-carbonyl]-3-methyl-isoxazol-5-yl}-biphenyl-4-yl)-cyclopropanecarboxylic acid] it was 1000 to 50000 nM. In the case of `Cc1noc(-c2ccc(-c3ccc(C4(C(=O)O)CC4)cc3)cc2)c1C1OC1CCc1ccccc1` (stereo not shown) [Compound 1-4, 1-{4′-[3-Methyl-4-(3-phenethyl-oxiranyl)-isoxazol-5-yl]-biphenyl-4-yl}-cyclopropanecarboxylic acid] it was < 300 nM; in that of `Cc1noc(-c2ccc(-c3ccc(C4(C(=O)O)CC4)cc3)cc2)c1Cn1ccc(-c2ccccc2)n1` [Compound 1-5, 1-{4′-[3-Methyl-4-(3-phenyl-pyrazol-1-ylmethyl)-isoxazol-5-yl]-biphenyl-4-yl}-cyclopropanecarboxylic acid], < 300 nM. Consider `Cc1noc(-c2ccc(-c3ccc(C4(C(=O)O)CC4)cc3)cc2)c1Cn1cc(-c2ccccc2)nn1` [Compound 1-6, 1-{4′-[3-Methyl-4-(4-phenyl-[1,2,3]triazol-1-ylmethyl)-isoxazol-5-yl]-biphenyl-4-yl}-cyclopropanecarboxylic acid], for which the IC50 was < 300 nM. With `Cc1noc(-c2ccc(-c3ccc(C4(C(=O)O)CC4)cc3)cc2)c1CN1CC(c2ccccc2)CC1=O` (stereo not shown) [Compound 1-7, 1-{4′-[3-Methyl-4-(2-oxo-4-phenyl-pyrrolidin-1-ylmethyl)-isoxazol-5-yl]-biphenyl-4-yl}-cyclopropanecarboxylic acid] the figure was < 300 nM; with `Cc1noc(-c2ccc(-c3ccc(C4(C(=O)O)CC4)cc3)cc2)c1Cc1nnc(-c2ccccc2)o1` [Compound 1-8, 1-{4′-[3-Methyl-4-(5-phenyl[1,3,4]oxadiazol-2-ylmethyl)-isoxazol-5-yl]-biphenyl-4-yl}-cyclopropanecarboxylic acid], < 300 nM. With `Cc1noc(-c2ccc(-c3ccc(C4(C(=O)O)CC4)cc3)cc2)c1Cn1cc(Cc2ccccc2)nn1` [Compound 1-9, 1-{4′-[4-(4-Benzyl-[1,2,3]triazol-1-ylmethyl)-3-methyl-isoxazol-5-yl]-biphenyl-4-yl}-cyclopropanecarboxylic acid] the figure was < 300 nM.

On to `Cc1noc(-c2ccc(-c3ccc(C4(C(=O)O)CC4)cc3)cc2)c1CN1CCC(c2ccccc2)CC1` [Compound 1-10, 1-{4′-[3-Methyl-4-(4-phenyl-piperidin-1-ylmethyl)-isoxazol-5-yl]-biphenyl-4-yl}-cyclopropanecarboxylic acid], for which the half-maximal inhibitory concentration (IC50) was > 50000 nM. For the compound `Cc1noc(-c2ccc(-c3ccc(C4(C(=O)O)CC4)cc3)cc2)c1Cn1nc(-c2ccccc2)oc1=N` [Compound 1-11, 1-{4′-[4-(2-Imino-5-phenyl-[1,3,4]oxadiazol-3-ylmethyl)-3-methyl-isoxazol-5-yl]-biphenyl-4-yl}-cyclopropanecarboxylic acid], the IC50 is < 300 nM. In the case of `Cc1noc(-c2ccc(-c3ccc(C4(C(=O)O)CC4)cc3)cc2)c1CN1C(=O)OC[C@@H]1Cc1ccccc1` [Compound 1-12, 1-{4′-[4-((S)-4-Benzyl-2-oxo-oxazolidin-3-ylmethyl)-3-methyl-isoxazol-5-yl]-biphenyl-4-yl}-cyclopropanecarboxylic acid] it was > 50000 nM; in that of `Cc1noc(-c2ccc(-c3ccc(C4(C(=O)O)CC4)cc3)cc2)c1Cn1ccc(-c2ccc(Br)cc2)n1` [Compound 1-13, 1-(4′-{4-[3-(4-Bromo-phenyl)-pyrazol-1-ylmethyl]-3-methyl-isoxazol-5-yl}-biphenyl-4-yl)-cyclopropanecarboxylic acid], 1000 to 50000 nM; in that of `Cc1noc(-c2ccc(-c3ccc(C4(C(=O)O)CC4)cc3)cc2)c1CN1C(=O)OC[C@@H]1c1ccccc1` [Compound 1-14, 1-{4′-[3-Methyl-4-((S)-2-oxo-4-phenyl-oxazolidin-3-ylmethyl)-isoxazol-5-yl]-biphenyl-4-yl}-cyclopropanecarboxylic acid], 1000 to 50000 nM. On to `Cc1noc(-c2ccc(-c3ccc(C4(C(=O)O)CC4)cc3)cc2)c1CN1C(=O)O[C@@H](c2ccccc2)[C@H]1C` [Compound 1-15, 1-{4′-[3-Methyl-4-((4R,5S)-4-methyl-2-oxo-5-phenyl-oxazolidin-3-ylmethyl)-isoxazol-5-yl]-biphenyl-4-yl}-cyclopropanecarboxylic acid], for which the IC50 lay in the range of 300 to 1000 nM.
